From patent publication US6737383B1, “Herbicidal oxadiazolidines” (priority 1999, dated 2004)

Legend:
giant foxtail = test: Test B pre/postemergence giant foxtail; type: in vivo, Setaria faberii; settings: for Giant foxtail plant response rating (0 to 10 scale): 0 is no effect
Outline: (§1)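 Test chemicals in a non-phytotoxic solvent mixture with surfactant were sprayed preemergence onto planted seeds and postemergence onto plants 2 to 18 cm tall (1- to 4-leaf stage). After twelve to sixteen days in a greenhouse, injury was visually rated against untreated controls from 0 (no effect) to 10 (complete control).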

rice = test: Test B flood test rice; type: in vivo, Oryza sativa
Outline: (§2)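 Plants were grown to the 2-leaf stage before treatment with test chemical, then held in a greenhouse for twelve to sixteen days. Injury was visually rated against untreated controls on a 0–10 scale, where 0 is no effect and 10 is complete control.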

morningglory = test: Test B pre/postemergence morningglory; type: in vivo, Ipomoea hederacea; settings: for Morningglory plant response rating (0 to 10 scale): 0 is no effect
Outline: as §1

duck salad = test: Test B flood test duck salad; type: in vivo, Heteranthera limosa
Outline: as §2

[1] = Postemergence, Rate 125 g/ha, scale of 0 to 10 where 0 is no effect and 10 is complete control
[2] = Preemergence, Rate 62 g/ha, scale 0 to 10 (0 no effect, 10 complete control)
[3] = Preemergence, Rate 125 g/ha, 10 is complete control
[4] = Preemergence, Rate 500 g/ha, scale 0 to 10 (0 no effect, 10 complete control)
[5] = Rate 62 g/ha, Postemergence, scale of 0 to 10 where 0 is no effect and 10 is complete control
[6] = Rate 250 g/ha, Postemergence, scale 0 to 10, 0 is no effect, 10 is complete control
[7] = Rate 500 g/ha, Postemergence, scale 0 to 10
[8] = Postemergence (flood test species), Rate 125 g/ha, scale of 0 to 10 where 0 is no effect and 10 is complete control
[9] = Rate 62 g/ha, Postemergence section, flood test species, scale of 0 to 10 where 0 is no effect and 10 is complete control
[10] = Rate 250 g/ha, Postemergence (flood test), scale 0 to 10, 0 is no effect, 10 is complete control
[11] = Rate 250 g/ha, headed Pre-emergence (flood test species), scale 0 to 10 (0 no effect, 10 complete control)
[12] = Rate 500 g/ha, headed Pre-emergence (flood test species), scale 0 to 10 (0 no effect, 10 complete control)
[13] = Rate 500 g/ha, listed under Postemergence (flood test species), scale 0 to 10
[14] = Rate 1000 g/ha, Pre-emergence (as headed), scale 0 to 10
[15] = Rate 2000 g/ha, Pre-emergence (as headed), scale 0 to 10
[16] = Preemergence, Rate 250 g/ha, scale 0 to 10, 0 is no effect, 10 is complete control
[17] = Preemergence, Rate 62 g/ha, scale of 0 to 10 where 0 is no effect and 10 is complete control
[18] = Preemergence, Rate 250 g/ha, scale of 0 to 10 where 0 is no effect and 10 is complete control
[19] = Preemergence, Rate 500 g/ha, scale of 0 to 10 where 0 is no effect and 10 is complete control
[20] = Rate 125 g/ha, Postemergence, scale 0 to 10
[21] = Rate 125 g/ha, Preemergence, scale of 0 to 10 where 0 is no effect and 10 is complete control
[22] = Rate 500 g/ha, Postemergence, scale 0 to 10, 0 no effect, 10 complete control
[23] = Rate 62 g/ha, headed Pre-emergence (flood test species), scale 0 to 10 (0 no effect, 10 complete control)
[24] = Rate 125 g/ha, Pre-emergence, flood test species, scale 0 to 10 where 0 is no effect and 10 is complete control
[25] = Rate 250 g/ha, Pre-emergence, flood-test species, scale 0 to 10, 0 is no effect, 10 is complete control
[26] = Rate 500 g/ha, Pre-emergence, flood test species, scale 0 to 10 (0 no effect, 10 complete control)
[27] = Preemergence, Rate 31 g/ha, visual rating, scale 0 to 10 (0 no effect, 10 complete control)
[28] = Rate 31 g/ha, Postemergence, scale 0 to 10
[29] = Postemergence, Rate 62 g/ha, scale 0 to 10, 0 is no effect, 10 is complete control
[30] = Postemergence, Rate 250 g/ha, scale 0 to 10, 0 no effect, 10 complete control
[31] = Preemergence, Rate 62 g/ha, scale 0 to 10, 0 is no effect, 10 is complete control
[32] = Preemergence, Rate 125 g/ha, scale 0 to 10 (0 no effect, 10 complete control)
[33] = Preemergence, Rate 500 g/ha, scale 0 (no effect) to 10 (complete control)
[34] = Rate 125 g/ha, Postemergence, scale 0 to 10, 0 no effect, 10 complete control
[35] = Rate 125 g/ha, Postemergence section (flood test species), scale 0 to 10, 0 no effect, 10 complete control
[36] = Rate 500 g/ha, listed under Postemergence (flood test species), scale 0 to 10, 0 no effect, 10 complete control
[37] = flood test, listed under Postemergence, Rate 250 g/ha, scale 0 to 10, 0 no effect, 10 complete control
[38] = Postemergence, Rate 250 g/ha, scale 0 to 10, 0 is no effect, 10 is complete control
[39] = Postemergence, Rate 500 g/ha, scale of 0 to 10 where 0 is no effect and 10 is complete control
[40] = Preemergence, Rate 125 g/ha, scale of 0 to 10 where 0 is no effect and 10 is complete control
[41] = Preemergence, Rate 500 g/ha, scale 0 to 10, 0 is no effect, 10 is complete control
[42] = Rate 62 g/ha, flood test species, Pre-emergence, visual evaluation after twelve to sixteen days
[43] = Rate 125 g/ha, under heading Pre-emergence, flood test species, visual evaluation after twelve to sixteen days
[44] = Rate 31 g/ha, Postemergence section (flood test species), scale 0 to 10

Cc1cnn(C)c1-n1c(=O)on(C(=O)N(c2ccc(F)cc2)C(C)C)c1=O [Compound 125]
0: Giant foxtail plant response rating (giant foxtail; [1]) | Giant foxtail plant response rating (giant foxtail; [2]) | Giant foxtail plant response rating (0 to 10 scale) (giant foxtail; [3]) | Giant foxtail plant response rating (giant foxtail; [4]) | Giant foxtail plant response rating (giant foxtail; [5]) | Plant response rating, Giant foxtail (giant foxtail; [6]) | Giant foxtail plant response rating (giant foxtail; [7]) | Rice plant response rating (rice; [8]) | Rice plant response rating (rice; [9]) | Plant response rating, Rice (rice; [10]) | Rice plant response rating (rice; [11]) | Plant response rating, Rice (rice; [12]) | Rice plant response rating (rice; [13]) | Rice plant response rating (rice; [14]) | Rice plant response rating (rice; [15]) | Morningglory plant response rating (morningglory; [1]) | Morningglory plant response rating (morningglory; [2]) | Morningglory plant response rating (0 to 10 scale) (morningglory; [3]) | Morningglory plant response rating (morningglory; [16]) | Morningglory plant response rating (morningglory; [4]) | Morningglory plant response rating (morningglory; [5]) | Ducksalad plant response rating (duck salad; [8]) | Ducksalad plant response rating (duck salad; [9]) | Plant response rating, Ducksalad (duck salad; [10]) | Ducksalad plant response rating (duck salad; [11]) | Plant response rating, Ducksalad (duck salad; [12]) | Ducksalad plant response rating (duck salad; [13]) | Ducksalad plant response rating (duck salad; [14]) | Ducksalad plant response rating (duck salad; [15])
2: Plant response rating, Morningglory (morningglory; [6]) | Morningglory plant response rating (morningglory; [7])

Cc1ccccc1-n1c(=O)on(C(=O)N(c2ccc(N(C)C)cc2)C(C)C)c1=O [Compound 237]
4: Giant foxtail plant response rating (giant foxtail; [18]) | Plant response rating, Giant foxtail (giant foxtail; [19])
6: Morningglory plant response rating (morningglory; [22])
3: Plant response rating (0 to 10; 0 is no effect, 10 is complete control), Morningglory (morningglory; Rate 250 g/ha, Postemergence)
2: Plant response rating, Morningglory (morningglory; [19]) | Morningglory plant response rating (morningglory; [5]) | Morningglory plant response rating (morningglory; [20])
0: Giant foxtail plant response rating (giant foxtail; [17]) | Giant foxtail plant response rating (giant foxtail; [5]) | Giant foxtail plant response rating (giant foxtail; [20]) | Giant foxtail plant response rating (giant foxtail; [21]) | Plant response rating (0 to 10; 0 is no effect, 10 is complete control), Giant foxtail (giant foxtail; Rate 250 g/ha, Postemergence) | Giant foxtail plant response rating (giant foxtail; [22]) | Rice plant response rating (rice; [23]) | Rice plant response rating (rice; [24]) | Rice plant response rating (rice; [25]) | Rice plant response rating (rice; [26]) | Morningglory plant response rating (morningglory; [17]) | Morningglory plant response rating (morningglory; [18]) | Morningglory plant response rating (morningglory; [21]) | Ducksalad plant response rating (duck salad; [23]) | Ducksalad plant response rating (duck salad; [24]) | Ducksalad plant response rating (duck salad; [25]) | Ducksalad plant response rating (duck salad; [26])

CC(C)N(C(=O)n1oc(=O)n(CC#C[Si](C)(C)C)c1=O)c1ccc(F)cc1 [Compound 213]
4: Giant foxtail plant response rating (giant foxtail; [18])
5: Morningglory plant response rating (morningglory; [28])
0: Giant foxtail plant response rating (giant foxtail; [27]) | Giant foxtail plant response rating (giant foxtail; [17]) | Giant foxtail plant response rating (giant foxtail; [28]) | Giant foxtail plant response rating (giant foxtail; [5]) | Giant foxtail plant response rating (giant foxtail; [20]) | Rice plant response rating (rice; [23]) | Rice plant response rating (rice; [25]) | Morningglory plant response rating (morningglory; [27]) | Morningglory plant response rating (morningglory; [17]) | Morningglory plant response rating (morningglory; [21]) | Ducksalad plant response rating (duck salad; [23]) | Ducksalad plant response rating (duck salad; [25])
7: Plant response rating (0 to 10; 0 is no effect, 10 is complete control), Morningglory (morningglory; Rate 250 g/ha, Postemergence)
3: Morningglory plant response rating (morningglory; [18])
6: Morningglory plant response rating (morningglory; [5]) | Morningglory plant response rating (morningglory; [20])
2: Giant foxtail plant response rating (giant foxtail; [21]) | Plant response rating (0 to 10; 0 is no effect, 10 is complete control), Giant foxtail (giant foxtail; Rate 250 g/ha, Postemergence)

Cc1ccccc1-n1c(=O)on(C(=O)N(c2ccc(C#N)cc2)C(C)C)c1=O [Compound 51]
3: Giant foxtail plant response rating (giant foxtail; [22])
4: Plant response rating, Giant foxtail (giant foxtail; [18])
1: Morningglory plant response rating (morningglory; [22])
8: Giant foxtail plant response rating (giant foxtail; [33])
2: Plant response rating, Giant foxtail (giant foxtail; [32])
0: Giant foxtail plant response rating (giant foxtail; [29]) | Giant foxtail plant response rating (giant foxtail; [30]) | Plant response rating, Giant foxtail (giant foxtail; [31]) | Giant foxtail plant response rating (giant foxtail; [34]) | Rice plant response rating (rice; [29]) | Rice plant response rating (rice; [35]) | Rice plant response rating (rice; [36]) | Rice plant response rating (rice; [37]) | Morningglory plant response rating (morningglory; [29]) | Morningglory plant response rating (morningglory; [30]) | Plant response rating, Morningglory (morningglory; [31]) | Plant response rating, Morningglory (morningglory; [32]) | Plant response rating, Morningglory (morningglory; [18]) | Morningglory plant response rating (morningglory; [33]) | Morningglory plant response rating (morningglory; [34]) | Ducksalad plant response rating (duck salad; [29]) | Ducksalad plant response rating (duck salad; [35]) | Ducksalad plant response rating (duck salad; [36]) | Ducksalad plant response rating (duck salad; [37])

CC(C)N(C(=O)n1oc(=O)n(C(C)CCl)c1=O)c1ccc(F)cc1F (stereo not shown) [Compound 408]
0: Plant response rating, Rice (0 to 10 scale, 0 is no effect, 10 is complete control) (rice; [42]) | Rice plant response rating (0 to 10 scale, 0 is no effect, 10 is complete control) (rice; [43]) | Rice plant response rating (rice; [25]) | Rice plant response rating (rice; [26]) | Plant response rating, Morningglory (morningglory; [2]) | Plant response rating, Morningglory (morningglory; [40]) | Morningglory plant response rating (morningglory; [16]) | Plant response rating, Ducksalad (0 to 10 scale, 0 is no effect, 10 is complete control) (duck salad; [42]) | Ducksalad plant response rating (0 to 10 scale, 0 is no effect, 10 is complete control) (duck salad; [43]) | Ducksalad plant response rating (duck salad; [25]) | Ducksalad plant response rating (duck salad; [26])
10: Plant response rating, Giant foxtail (giant foxtail; [2]) | Plant response rating, Giant foxtail (giant foxtail; [40]) | Giant foxtail plant response rating (giant foxtail; [16]) | Giant foxtail plant response rating (giant foxtail; [41])
7: Plant response rating, Morningglory (morningglory; [38]) | Morningglory plant response rating (morningglory; [39]) | Morningglory plant response rating (morningglory; [41])
9: Plant response rating, Giant foxtail (giant foxtail; Postemergence, Rate 125 g/ha, scale 0 to 10, 0 is no effect, 10 is complete control) | Plant response rating, Giant foxtail (giant foxtail; [38]) | Giant foxtail plant response rating (giant foxtail; [39]) | Giant foxtail plant response rating (giant foxtail; [5])

Cc1noc(C)c1-n1c(=O)on(C(=O)N(c2ccc(F)cc2)C(C)C)c1=O [Compound 155]
2: Giant foxtail plant response rating (giant foxtail; [16]) | Plant response rating, Morningglory (morningglory; [6])
1: Giant foxtail plant response rating (giant foxtail; [5])
6: Plant response rating, Giant foxtail (giant foxtail; [6])
0: Giant foxtail plant response rating (giant foxtail; [27]) | Giant foxtail plant response rating (giant foxtail; [2]) | Giant foxtail plant response rating (0 to 10 scale) (giant foxtail; [3]) | Giant foxtail plant response rating (giant foxtail; [28]) | Rice plant response rating (rice; [8]) | Rice plant response rating (rice; [44]) | Rice plant response rating (rice; [9]) | Plant response rating, Rice (rice; [10]) | Morningglory plant response rating (morningglory; [1]) | Morningglory plant response rating (morningglory; [27]) | Morningglory plant response rating (morningglory; [2]) | Morningglory plant response rating (0 to 10 scale) (morningglory; [3]) | Morningglory plant response rating (morningglory; [16]) | Morningglory plant response rating (morningglory; [28]) | Morningglory plant response rating (morningglory; [5]) | Ducksalad plant response rating (duck salad; [8]) | Ducksalad plant response rating (duck salad; [44]) | Ducksalad plant response rating (duck salad; [9]) | Plant response rating, Ducksalad (duck salad; [10])
3: Giant foxtail plant response rating (giant foxtail; [1])
